In patent publication US20090054453A1, “Novel Tetralins as 5-HT6 Modulators” (priority 2006, published 2009) one finds Ki data, which are given here for one compound.

pKi: −log10 of the molar value.

The target in this experiment is T1, rat striatal 5-HT6 receptors (Rattus norvegicus, UniProt P31388).
T1 construct: Striatal tissue from adult rats (Sprague-Dawley, 320-370 g, B & K Sweden) were dissected out, weighed and homogenized; from tissue; host or cells: rat striatum (Sprague-Dawley) membranes
T1 sequence (P31388 whole entry): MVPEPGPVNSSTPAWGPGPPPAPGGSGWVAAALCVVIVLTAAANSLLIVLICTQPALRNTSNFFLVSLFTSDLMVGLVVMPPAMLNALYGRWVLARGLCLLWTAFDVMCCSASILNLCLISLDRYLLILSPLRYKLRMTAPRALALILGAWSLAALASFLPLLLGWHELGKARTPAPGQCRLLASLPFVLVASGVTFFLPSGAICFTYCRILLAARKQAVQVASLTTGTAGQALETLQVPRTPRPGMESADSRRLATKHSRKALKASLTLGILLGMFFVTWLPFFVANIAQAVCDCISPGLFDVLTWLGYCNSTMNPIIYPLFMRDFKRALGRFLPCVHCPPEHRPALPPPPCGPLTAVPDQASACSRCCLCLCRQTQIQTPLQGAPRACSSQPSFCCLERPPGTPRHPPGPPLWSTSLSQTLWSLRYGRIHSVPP
The experiment can be described thus: [125I]SB258585 binding to rat striatal 5-HT6 receptors. Particulars: competition with [125I]SB258585, rat striatal membranes. The procedure:
Method for [125I]SB258585 binding to rat striatal 5-HT6 receptors
[^125I]SB258585 (1) with specific radioactivity 2000 Ci/mmol was purchased from Amersham Biosciences Europe GmbH, Freiburg, Germany. Other chemicals were purchased from commercial sources and were of analytical grade.
Striatal tissue from adult rats (Sprague-Dawley, 320-370 g, B & K Sweden) were dissected out, weighed and homogenized in buffer containing 50 mM Tris-HCl, 4 mM MgCl2, 1 mM EDTA, 10 μM pargyline and protease inhibitor (Complete, Roche Diagnostics) pH 7.4 using an Ultra-Turrax T8 (IKA Labortechnik, Germany). The tissue homogenate was centrifuged at 48 000×g for 10 min and the pellet was resuspended and recentrifuged as above. […]
Saturation binding studies were carried out in duplicate with 1-3 mg w.w. per tube in 0.5 ml buffer (50 mM Tris, 4 mM MgCl2, 100 mM NaCl, 1 mM EDTA, 5 mM ascorbate and 10 μM pargyline at pH 7.4), 0.2 nM [^125I]SB258585 and unlabelled SB258585 to give a final concentration range of 0.23-20 nM (12 conc.). Non-specific binding was determined in the presence of 10 μM methiothepin. […] The radioactivity was determined in a Packard Tri-Carb 2900TR liquid scintillation counter. Data were analyzed by non-linear regression analyses using PRISM 4.00 (GraphPad Software Inc., San Diego, Calif.). […]

For orientation: pKi means the Ki on a negative log10 scale, so that one unit is a factor of ten. Low values mean a high Ki, high ones a low Ki. In turn, `CN1CCN(c2cccc3c2C[C@H](NS(=O)(=O)c2ccc4ccccc4c2)CC3)CC1` [Example 12, N-[(2R)-8-(4-Methylpiperazin-1-yl)-1,2,3,4-tetrahydronaphthalen-2-yl]naphthalene-2-sulfonamide] showed a pKi of 9.10.
